What was measured:
[1] = tested on: TGF-β activated NIH3T3 cells; assay: ROS inhibition in TGF-β activated NIH3T3 cells (Fluorometric Hydrogen Peroxide Assay Kit); type: cell-based, mouse
Experimental: Based on literature and Chinese medicine pharmacology, 10 anti-fibrosis TCMs were selected to screen the ROS inhibition effects on TGF-β activated NIH3T3 cells. NIH3T3 cells were pre-stimulated with 10 ng/mL TGF-β for 24 h and 2×10^3 cells/well were seeded in a 96-well black plate. Then, the cells were treated with different TCMs. After these drugs were added, the cells were further cultured for 48 h. Then the concentration of ROS was determined with the Fluorometric Hydrogen Peroxide Assay Kit according to the manufacturer's instructions. The fluorescence intensity measured by using a fluorescence microplate reader (FLx800, Biotek Instrument Inc., Winooski, VT, USA) at excitation and emission wavelengths of 485 and 530 nm, respectively.

[2] = tested on: NIH3T3 cells; type: cell-based, mouse; settings: different concentrations, within 48 hours
Experimental: 1.4.4. Cytotoxicity of Puerarin. The addition of puerarin and nanoPue to NIH3T3 cells was the same as the ROS assay. After 48 h of incubation, the culture medium was discarded and the cell layers were washed twice with PBS. Then 100 μL culture medium and 10 μL MTT solution (5 mg/mL) were added and incubated for 4 h at 37° C. After the supernatant was removed, 150 μL DMSO was added and OD value was determined at 492 nm by using a multidetection microplate reader (Plate CHAMELEONTM V-Hidex). The cell viability rate of each concentration was calculated according to formula (1).
Cell viability %=(ODdosing group/ODcontrol group)×100% (1)

[3] = literature statement; cited from earlier work

With Puerarin the “ROS inhibition activity at different concentrations” value ([1]; TGF-β activated NIH3T3 cells, different concentrations) was “concentration-dependent ROS downregulation pattern”, the “amount of ROS in TGF-β activated NIH3T3 cells” value ([1]; screen of ten natural compounds, 15 μg/mL, 48 h, compared with other natural compounds) was “significantly reduced” and the “cytotoxicity in NIH3T3 cells (cell viability, MTT)” value [2] was “no cytotoxicity”. The solubility [3] was “poorly soluble”.
